Laboratory results: patent US20230348371A1, “SULFONYLUREA DERIVATIVE AND MEDICAL USES THEREOF” (SHANGHAI SENHUI MEDICINE CO., LTD., priority 2020, published 2023)
Where two headings read alike, the source gives them in different places.

Experiments:
[1] = In vivo pharmacokinetics after single intravenous injection in SD rats (plasma); settings: rat, single IV 5 mg/kg; for Vd: iv, 5 mg/kg; for MRT last: read-out: MRT(0-t); for MRT inf: read-out: MRT(0-∞)
Procedure: 1. […] The mixture was stirred or sonicated until completely dissolved to obtain a clear solution at a concentration of 1 mg/mL for administration by intravenous injection.
2. An appropriate amount of compound 3 or compound 6 was accurately weighed, and an appropriate volume of 5% DMSO+20% PG+20% PEG400+55% PBS (pH 8.0) was added thereto. The mixture was stirred or sonicated until completely dissolved to obtain a clear solution at a concentration of 1 mg/mL for administration by intravenous administration.
SPF grade SD rats, source: animals were transferred from the laboratory animal reserve bank (999M-017), Shanghai Sippe-Bk Lab Animal Co., Ltd.
3 rats/time point was set, blood samples were collected from the first 3 rats in each group, and cerebrospinal fluid and brain tissue were collected from the last 3 rats in each group. Blood sample: before administration and 5 min, 0.25 h, 0.5 h, 1 h, 1.5 h, 2 h, 4 h, 6 h, 8 h, 12 h and 24 h after administration. Tissue sample: cerebrospinal fluid and brain tissue were collected 10 min after administration.
Blood sample: blood was collected via jugular vein or other suitable means, and about 0.20 mL of blood was collected from each rat and added into an EDTA-K2 anticoagulation tube, which was then placed on ice after collection and centrifuged within 2 h for plasma separation (centrifugation conditions: 6800 g, 6 min, 2-8° C.). The collected plasma samples were stored in a refrigerator at −70° C. before analysis, and the residual plasma samples after analysis were still stored in the refrigerator at −70° C. for subsequent processing according to the requirements of the sponsor.
The concentration of each test compound in the plasma and tissue samples was determined. The accuracy of quality control samples was evaluated while analyzing the samples, and more than 66% of the quality control samples were required to have an accuracy between 80% and 120%.
The pharmacokinetic parameters such as AUC(0-t), T½, Cmax, Tmax and MRT were calculated from plasma concentration data at different time points using WinNonlin.
When plasma drug concentration-time curves were plotted, BLQ was recorded as 0. When the pharmacokinetic parameters were calculated, the concentration before administration was calculated as 0; BLQ before Cmax (including “No peak”) was calculated as 0; and BLQ that occurs after Cmax (including “No peak”) was excluded from the calculation.

SUR1 receptor = SUR1 receptor (Homo sapiens (Human), UniProt Q09428); assay: Binding activity for SUR1 receptor ([3H]-Glibenclamide displacement, SUR1 membrane); settings: SUR1 membrane protein, [3H]-Glibenclamide 2 nM, 37° C. 1 h
SUR1 receptor, sequence (Q09428 whole entry): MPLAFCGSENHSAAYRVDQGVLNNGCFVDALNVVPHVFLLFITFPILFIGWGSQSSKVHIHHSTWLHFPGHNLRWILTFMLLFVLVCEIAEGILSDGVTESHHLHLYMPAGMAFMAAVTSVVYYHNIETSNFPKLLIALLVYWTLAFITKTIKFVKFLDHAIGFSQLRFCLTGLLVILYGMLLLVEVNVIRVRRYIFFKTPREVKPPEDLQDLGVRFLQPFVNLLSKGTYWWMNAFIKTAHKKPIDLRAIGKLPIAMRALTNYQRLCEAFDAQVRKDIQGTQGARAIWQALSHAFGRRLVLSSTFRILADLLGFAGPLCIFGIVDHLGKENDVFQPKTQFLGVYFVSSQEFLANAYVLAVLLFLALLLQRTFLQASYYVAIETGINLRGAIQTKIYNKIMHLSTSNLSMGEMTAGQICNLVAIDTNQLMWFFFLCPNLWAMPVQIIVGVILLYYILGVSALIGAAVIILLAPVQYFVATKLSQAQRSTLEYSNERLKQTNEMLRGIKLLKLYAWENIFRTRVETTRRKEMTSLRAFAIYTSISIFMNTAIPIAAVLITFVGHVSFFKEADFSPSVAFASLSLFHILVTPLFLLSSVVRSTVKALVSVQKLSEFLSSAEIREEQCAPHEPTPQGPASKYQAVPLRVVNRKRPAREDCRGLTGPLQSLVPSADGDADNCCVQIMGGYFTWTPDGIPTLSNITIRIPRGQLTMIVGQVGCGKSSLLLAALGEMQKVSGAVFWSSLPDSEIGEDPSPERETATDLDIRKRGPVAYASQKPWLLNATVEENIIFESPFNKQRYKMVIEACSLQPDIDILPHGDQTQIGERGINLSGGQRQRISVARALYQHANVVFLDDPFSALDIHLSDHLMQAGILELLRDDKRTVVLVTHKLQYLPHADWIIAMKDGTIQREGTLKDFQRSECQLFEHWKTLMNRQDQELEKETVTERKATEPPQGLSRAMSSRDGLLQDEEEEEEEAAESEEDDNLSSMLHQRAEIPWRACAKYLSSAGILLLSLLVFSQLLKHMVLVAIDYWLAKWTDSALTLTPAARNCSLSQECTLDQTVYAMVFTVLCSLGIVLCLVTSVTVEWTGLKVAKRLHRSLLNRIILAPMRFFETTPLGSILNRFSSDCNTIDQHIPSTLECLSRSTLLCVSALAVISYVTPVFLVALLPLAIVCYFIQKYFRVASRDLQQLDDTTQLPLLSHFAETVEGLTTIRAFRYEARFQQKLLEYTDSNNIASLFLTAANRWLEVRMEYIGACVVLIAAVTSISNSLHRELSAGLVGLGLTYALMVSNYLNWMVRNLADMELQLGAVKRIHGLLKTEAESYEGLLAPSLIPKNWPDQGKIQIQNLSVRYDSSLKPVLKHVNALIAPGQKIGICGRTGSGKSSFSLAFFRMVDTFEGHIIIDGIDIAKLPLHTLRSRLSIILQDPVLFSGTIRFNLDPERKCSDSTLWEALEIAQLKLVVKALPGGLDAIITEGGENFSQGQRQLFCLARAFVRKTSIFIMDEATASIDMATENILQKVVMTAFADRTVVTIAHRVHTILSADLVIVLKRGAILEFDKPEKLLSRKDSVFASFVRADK
Procedure: The plate was incubated at 4° C. for 1 h. • f) The […]-96 GF/C and […]-96 GF/B plates were washed twice with Universal Harvester, each time with 50 mL of washing solution. • g) The SUR1 receptor reaction system was transferred to a […]-96 GF/B plate with Universal Harvester, and 900 μL of washing solution was added to each well to wash the GF/B plate 4 times. The washed […]-96 GF/B plate was dried in an oven at 55° C. for 10 min. • h) 40 μL of ULTIMA GOLD scintillation solution was added to each well, and the plate was read using Microbeta.

[2] = Sprague-Dawley (SD), read-out: Vss
[3] = Sprague-Dawley (SD), read-out: Vz

SMILES	Vd ([1]; SD, read-out: Vss)	Vd ([1]; SD, read-out: Vz)	AUC(0-inf) [1]	AUC(0-t) [1]	Cmax [1]	Tmax [1]	half-life [1]	MRT last [1]	MRT inf [1]	Vd [1, 2]	Vd [1, 3]	AUC(0-inf) ([1]; Sprague-Dawley (SD))	AUC(0-t) ([1]; Sprague-Dawley (SD))	Cmax ([1]; Sprague-Dawley (SD))	Tmax ([1]; Sprague-Dawley (SD))	half-life ([1]; Sprague-Dawley (SD))	MRT last ([1]; Sprague-Dawley (SD))	MRT inf ([1]; Sprague-Dawley (SD))	IC50 (SUR1 receptor)
O=C(NC1CCCCC1)NS(=O)(=O)c1ccc(CCNC(=O)c2cc(Cl)ccc2O)cc1 [Compound 1, 5-chloro-N-(4-(N-(cyclohexylcarbamoyl)sulfamoyl)phenethyl)-2-hydroxybenzamide]										0.219 ± 0.0263 L/kg	1 ± 0.202 L/kg	28700 ± 4700 ng·h/mL	28200 ng·h/mL	65000 ± 3630 ng/mL	6 min	3.9 ± 0.6 h	0.9 ± 0.3 h	1.2 ± 0.1 h	
O=C(NC1CCCCC1)NS(=O)(=O)c1ccc(CCNC(=O)c2cc(Cl)ccc2OC(F)(F)F)cc1 [Compound 3, 5-chloro-N-(4-(N-(cyclohexylcarbamoyl)sulfamoyl)phenethyl)-2-(trifluoromethoxy)benzamide]										0.303 ± 0.0141 L/kg	0.51 ± 0.0307 L/kg	36400 ± 1170 ng·h/mL	35700 ± 1130 ng·h/mL	32800 ± 1530 ng/mL	6 min	2.6 ± 0.1 h	1.9 ± 0.1 h	2.2 ± 0.1 h	0.159 µM
COc1ccc(Cl)cc1C(=O)NCCc1ccc(S(=O)(=O)NC(=O)N[C@H]2CC[C@H](O)CC2)cc1 [Compound 4, 5-chloro-N-(4-(N-(((1r,4r)-4-hydroxycyclohexyl)carbamoyl)sulfamoyl)phenethyl)-2-methoxybenzamide]	0.119 ± 0.0123 L/kg	1.66 ± 1.73 L/kg	13000 ± 1480 ng·h/mL	12900 ± 1460 ng·h/mL	39600 ± 4730 ng/mL	6 min	3.1 ± 3.4 h	0.3 ± 0.1 h	0.3 ± 0.1 h										
COc1ccc(Cl)cc1C(=O)NCCc1ccc(S(=O)(=O)NC(=O)N[C@@H]2CCCC[C@H]2C#N)cc1 [Compound 6, 5-chloro-N-(4-(N-(((1R,2R)-2-cyanocyclohexyl)carbamoyl)sulfamoyl)phenethyl)-2-methoxybenzamide]										3.44 ± 4.53 L/kg	14.6 ± 19.1 L/kg	4980 ± 288 ng·h/mL	4660 ± 259 ng·h/mL	11800 ± 1060 ng/mL	6 min	5.4 ± 2.1 h	0.7 ± 0.1 h	3.6 ± 4.8 h	0.037 µM
COc1ccc(C#N)cc1C(=O)NCCc1ccc(S(=O)(=O)NC(=O)NC2CCCCC2)cc1 [Compound 7, 5-cyano-N-(4-(N-(cyclohexylcarbamoyl)sulfamoyl)phenethyl)-2-methoxybenzamide]										0.193 ± 0.0469 L/kg	0.5 ± 0.16 L/kg	28600 ± 7920 ng·h/mL	28500 ± 7930 ng·h/mL	42400 ± 8440 ng/mL	6 min	1.9 ± 0.2 h	1 h	1.1 h	0.006 µM
Cc1cnc(C(=O)NCCc2ccc(S(=O)(=O)NC(=O)NC3CCCCC3)cc2)cn1 [Glipizide, reference compound]																			0.23 µM
